Assay results reported in patent publication US20220273593A1, “COMPOUNDS AND COMPOSITIONS FOR TREATING KIDNEY DISEASE” (JOHANN WOLFGANG GOETHE-UNIVERSITÄT FRANKFURT AM MAIN, priority 2019, published 2022).
“Also recorded” adds a separate entry of the source. Each block holds one compound with its values, some of them ahead of it.

Key:
FXR [1] = biological target: T1, FXR (Homo sapiens, UniProt Q96RI1); test: FXR activation (EC50, efficacy vs GW4064, mode); format: cell-based
T1 sequence (Q96RI1 1-486): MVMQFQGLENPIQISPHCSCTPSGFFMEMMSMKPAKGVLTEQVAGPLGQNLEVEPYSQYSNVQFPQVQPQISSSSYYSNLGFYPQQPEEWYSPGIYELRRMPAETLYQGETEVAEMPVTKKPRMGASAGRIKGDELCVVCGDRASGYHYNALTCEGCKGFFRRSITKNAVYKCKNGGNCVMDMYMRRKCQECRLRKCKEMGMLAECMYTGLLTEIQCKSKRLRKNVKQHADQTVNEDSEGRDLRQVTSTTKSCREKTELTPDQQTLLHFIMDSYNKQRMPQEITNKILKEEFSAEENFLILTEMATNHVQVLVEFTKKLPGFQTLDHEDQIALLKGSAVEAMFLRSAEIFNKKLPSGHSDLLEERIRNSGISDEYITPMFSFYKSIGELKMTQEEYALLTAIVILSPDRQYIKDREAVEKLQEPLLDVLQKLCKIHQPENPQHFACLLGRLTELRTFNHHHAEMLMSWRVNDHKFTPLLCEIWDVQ

sEH [2] = biological target: T2, sEH (Homo sapiens, UniProt P34913); test: sEH inhibition (enzyme); format: biochemical
T2 sequence (P34913 1-555): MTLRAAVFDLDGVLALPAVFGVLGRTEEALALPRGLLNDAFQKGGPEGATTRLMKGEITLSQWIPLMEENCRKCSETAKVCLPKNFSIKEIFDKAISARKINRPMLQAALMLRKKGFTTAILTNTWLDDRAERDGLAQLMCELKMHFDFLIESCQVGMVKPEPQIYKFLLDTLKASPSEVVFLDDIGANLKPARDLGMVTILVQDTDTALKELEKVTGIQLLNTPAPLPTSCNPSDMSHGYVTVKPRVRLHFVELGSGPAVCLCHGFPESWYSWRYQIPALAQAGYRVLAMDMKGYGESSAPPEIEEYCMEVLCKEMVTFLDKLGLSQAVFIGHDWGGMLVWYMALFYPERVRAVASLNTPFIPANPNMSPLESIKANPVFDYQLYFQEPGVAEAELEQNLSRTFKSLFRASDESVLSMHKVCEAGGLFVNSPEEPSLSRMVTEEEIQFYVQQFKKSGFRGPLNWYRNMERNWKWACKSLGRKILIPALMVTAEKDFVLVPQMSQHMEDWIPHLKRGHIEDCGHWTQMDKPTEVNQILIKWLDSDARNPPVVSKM

UUO mice [3] = test: UUO renal fibrosis model, Protocol 1 (preventive pre-treatment); format: in vivo, Male C57Bl/6J mice
Experimental: This study was approved and conducted according to guidelines of the Institutional Animal Care and Use Committee, Medical College of Wisconsin. The Biomedical Resource Center at the Medical College of Wisconsin housed animals with free access to water and food and a 12/12 h light-dark cycle. Male C57B1/6J mice (8-10 weeks old) were purchased from Jackson Laboratories, Bar Harbor, Me. Mice were administered 2.0% isoflurane to induce anesthesia prior to UUO surgery. UUO surgery was conducted with by obstructing the left ureter proximal to the renal pelvis using a 6-o silk tie (Sharma et al., 2016; Kim et al., 2015). Mice with sham surgery went through the same procedure as the UUO mice except that the ureter was not ligated. Two experimental protocols were used to determine renal antifibrotic actions of DM509 and in both protocols the mice were subjected to Sham surgery (n=6/protocol) or Unilateral Ureteral Obstruction (UUO) surgery to induce renal fibrosis. In Protocol 1, mice went through UUO surgery after 24 hours pre-treatment of DM509 (10 mg/kg/d, p.o., n=8) or vehicle (n=8) and blood and kidney tissue were collected at day 10 of the UUO surgery. Mice of the Protocol 2 treated with DM509 (n=8) or vehicle (n=8) after 3 days of UUO surgery and continued for 7 days followed by blood and kidney tissue collection. […] Kidney hydroxyproline levels were measured using a commercially available kit (Sigma Aldrich, USA). Blood urea nitrogen (BUN) is measured using a kit from Arbor Assay, USA and monocyte chemoattractant protein-1 (MCP-1) was measured using kit from R&D Systems, Inc., USA. Renal mRNA expression for several fibrotic [fibronectin, α-smooth muscle actin (α-SMA), fibroblast specific protein-1 (FSP-1], tubular injury [NGAL, kidney injury molecule-1 (KIM-1), Claudins1,3,4,5], inflammatory (TNF-α, IL1β, IL-6, ICAM, VCAM) were studied by Real Time-PCR (RT-PCR) analysis. RNeasy Mini Kit (QIAGEN, Calif., USA) was used according to the manufacturer's protocol and messenger RNA (mRNA) was prepared from each sample homogenate. The mRNA samples were quantified spectrophotometrically and 1 μg of total RNA was reverse-transcribed to cDNA using iScript™ Select cDNA Synthesis Kit (Bio-Rad, Hercules, Calif., USA). Gene expression was quantified by iScript One-Step RT-PCR Kit with SYBR green using the MyiQ™ Single Color Real-Time PCR Detection System (Bio-Rad Laboratories, Hercules, Calif., USA). Dissociation curve analysis was accomplished with iQ5 Optical System Software, Version 2.1 (Bio-Rad Laboratories, Hercules, Calif., USA), and each amplified sample analysed for homogeneity. […] All samples were run in triplicate and fold change in gene expression compared to controls determined by comparative threshold cycle (Ct) method. […]

UUO mice [4] = test: UUO renal fibrosis model, Protocol 2 (interventional treatment); format: in vivo, Male C57Bl/6J mice
Experimental: This study was approved and conducted according to guidelines of the Institutional Animal Care and Use Committee, Medical College of Wisconsin. The Biomedical Resource Center at the Medical College of Wisconsin housed animals with free access to water and food and a 12/12 h light-dark cycle. Male C57B1/6J mice (8-10 weeks old) were purchased from Jackson Laboratories, Bar Harbor, Me. Mice were administered 2.0% isoflurane to induce anesthesia prior to UUO surgery. UUO surgery was conducted with by obstructing the left ureter proximal to the renal pelvis using a 6-o silk tie (Sharma et al., 2016; Kim et al., 2015). Mice with sham surgery went through the same procedure as the UUO mice except that the ureter was not ligated. Two experimental protocols were used to determine renal antifibrotic actions of DM509 and in both protocols the mice were subjected to Sham surgery (n=6/protocol) or Unilateral Ureteral Obstruction (UUO) surgery to induce renal fibrosis. In Protocol 1, mice went through UUO surgery after 24 hours pre-treatment of DM509 (10 mg/kg/d, p.o., n=8) or vehicle (n=8) and blood and kidney tissue were collected at day 10 of the UUO surgery. Mice of the Protocol 2 treated with DM509 (n=8) or vehicle (n=8) after 3 days of UUO surgery and continued for 7 days followed by blood and kidney tissue collection. Kidney samples for histological and immune-histological studies were fixed in 10% buffered formalin and stored at room temperature. Serum and tissue samples for biochemical and gene expression analysis were snap-frozen in liquid nitrogen and stored at […]. Kidney hydroxyproline levels were measured using a commercially available kit (Sigma Aldrich, USA). Blood urea nitrogen (BUN) is measured using a kit from Arbor Assay, USA and monocyte chemoattractant protein-1 (MCP-1) was measured using kit from R&D Systems, Inc., USA. Renal mRNA expression for several fibrotic [fibronectin, α-smooth muscle actin (α-SMA), fibroblast specific protein-1 (FSP-1], tubular injury [NGAL, kidney injury molecule-1 (KIM-1), Claudins1,3,4,5], inflammatory (TNF-α, IL1β, IL-6, ICAM, VCAM) were studied by Real Time-PCR (RT-PCR) analysis. RNeasy Mini Kit (QIAGEN, Calif., USA) was used according to the manufacturer's protocol and messenger RNA (mRNA) was prepared from each sample homogenate. The mRNA samples were quantified spectrophotometrically and 1 μg of total RNA was reverse-transcribed to cDNA using iScript™ Select cDNA Synthesis Kit (Bio-Rad, Hercules, Calif., USA). Gene expression was quantified by iScript One-Step RT-PCR Kit with SYBR green using the MyiQ™ Single Color Real-Time PCR Detection System (Bio-Rad Laboratories, Hercules, Calif., USA). Dissociation curve analysis was accomplished with iQ5 Optical System Software, Version 2.1 (Bio-Rad Laboratories, Hercules, Calif., USA), and each amplified sample analysed for homogeneity. Denaturation was done at 95° C. for 2 min followed by 40 cycles conducted at 95° C. for 10 s and at 60° C. for 30 s. All samples were run in triplicate and fold change in gene expression compared to controls determined by comparative threshold cycle (Ct) method. Target gene expression levels were determined by normalizing Ct values to two housekeeping genes. Statistical analyses were carried out using six samples from each experimental group and comparing to the control group. […] PAS-stained tissue was evaluated for tubular injury whilst PSR was used to determine collagen-positive renal interstitial fibrosis levels. Histopathological changes were scored as published previously and scores presented as a percentage area-fraction relative to the total area analysed. Tubular injury (PAS-cast areas) and interstitial fibrosis (PSR-collagen positive areas) scoring was performed in a blinded fashion by two observers. […]

C57BL/6JRj mice = test: DIO NASH model (Gubra Amylin NASH Diet); format: in vivo; conditions: 12 weeks, DM or MH 10 mg/kg, Obeticholic Acid 30 mg/kg
Experimental: In vivo effects of the compounds (DM and MH) were examined in a NASH model which is outlined by the timeline in FIG. 8A. 41 weeks before treatment NASH was induced in C57BL/6JRj mice by using the Gubra Amylin NASH Diet. After stratification, randomization and base-line measurements the mice were divided into four groups (16 mice per group). Each group was either dosed with 10 mg/kg of DM or MH, 30 mg/kg Obeticholic Acid or vehicle for 12 weeks respectively. […] After four weeks of treatment (FIG. 8C) and after termination (FIG. 8D) biochemical parameters were determined to examine and compare liver health (plasma alanine aminotransferase and plasma aspartate aminotransferase) and lipid homeostasis (plasma triglycerides and plasma total cholesterol) among treatment groups and healthy mice. Furthermore, livers of all animals were analyzed by histopathology and the use of immuno-histochemistry (FIG. 9 and FIG. 10). […] Inflammatory effects in the treatment groups are shown in FIG. 13a in a similar manner including a post-treatment histopathological analysis of inflammatory markers for the different treatment groups in FIG. 13b to investigate the anti-inflammatory in vivo activity of the compounds.

sEH [5] = biological target: T2, sEH; test: sEH inhibition (cellular); format: cell-based
FXR [6] = biological target: T1, FXR; test: FXR binding (Kd)
[7] = DM509 pre-treatment 10 mg/kg/d p.o., day 10
[8] = interventional treatment 10 mg/kg/d, 7 days

- EC50 (FXR [1]): 20 nM
- FXR efficacy (FXR [1]): 35 % of GW4064
- FXR mode of action (FXR [1]): partial agonist
- IC50 (sEH [2]): 4 nM
- IC50 (sEH [5]): 1 nM
SMILES: CC(C)(C)c1ccc(C(=O)NCc2ccc(NS(C)(=O)=O)cc2Cl)cc1 [DM509]
- lower collagen positive area than vehicle (UUO mice [3]; [7]): 54%
- lower renal mRNA expression of fibrotic markers (α-SMA, fibronectin) than vehicle (UUO mice [3]; [7]): 40-60%
- lower renal mRNA expression of inflammatory markers (UUO mice [3]; [7]): 50-80%
- kidney fibrosis (in words) (UUO mice [3]; preventive treatment 10 mg/kg/d): decreased UUO kidney fibrosis
- renal CD45 positive inflammatory cell infiltration (in words) (UUO mice [4]): reduced infiltration of these cells
- renal VE-cadherin mRNA and CD31 positive cells (in words) (UUO mice [4]): markedly mitigated the decrease of VE-cadherin and CD31 positive cells
- renal inflammation: renal MCP-1 level and cytokine (TNF-α, IL1β, IL6) expression (in words) (UUO mice [4]): markedly mitigated renal inflammation; also recorded: reduced renal inflammation
- renal mRNA expression of claudins (in words) (UUO mice [4]): re-stored the mRNA expressions of claudins 1,3,4 and 5; also recorded: restoring claudin expressions
- renal mRNA expression of tubular injury markers KIM-1 and NGAL (in words) (UUO mice [4]): mitigated this marked elevation
- renal mRNA expression of vascular inflammatory markers ICAM and VCAM (in words) (UUO mice [4]): mitigated elevated expression
- peritubular vascular density assessed by CD31 expression (in words) (UUO mice [4]; interventional treatment): mitigated vascular density loss
- EMT: mesenchymal (FSP-1, fibronectin, α-SMA) and epithelial (E-cadherin) marker expressions in kidney (in words) (UUO mice [4]; interventional treatment 10 mg/kg/d): markedly attenuated EMT; also recorded: markedly reduced EMT
- reduction of BUN (UUO mice [4]; interventional treatment 10 mg/kg/d in drinking water, 7 days): 40%
- reduction of collagen positive area (UUO mice [4]; [8]): 65%
- reduction of kidney hydroxyproline content (UUO mice [4]; [8]): 41%
- reduction of renal ICAM and VCAM gene expression (UUO mice [4]; [8]): 40-50%
- reduction of tubular injury markers (KIM-1, NGAL) (UUO mice [4]; [8]): 25-50%
- renal fibrosis: collagen positive area and renal hydroxyproline content (in words) (UUO mice [4]; treatment from day 3 after UUO for 7 days): markedly mitigated renal fibrosis
- cumulative daily food intake, difference among treatment groups (C57BL/6JRj mice): neither differences in cummulative daily food intake

- FXR mode of action (FXR [1]): selective modulator
- IC50 (sEH [2]): < 1 nM
- Kd (FXR [6]): 1400 nM
- IC50 (sEH [5]): < 1 nM
SMILES: CC(C)(C)c1ccc(C(=O)NCc2ccc(NS(C)(=O)=O)cc2Cl)s1 [MH]
- cumulative daily food intake, difference among treatment groups (C57BL/6JRj mice): neither differences in cummulative daily food intake

SMILES: CC[C@H]1[C@@H](O)[C@@H]2[C@H](CC[C@]3(C)[C@@H]([C@H](C)CCC(=O)O)CC[C@@H]23)[C@@]2(C)CC[C@@H](O)C[C@@H]12 [Obeticholic Acid, reference compound]
- cumulative daily food intake, difference among treatment groups (C57BL/6JRj mice): neither differences in cummulative daily food intake
